From BindingDB's records for doi:10.1016/j.bmcl.2008.03.027 (Scripps Florida, 2008) come the findings set out here.

The target in this assay is Steroidogenic factor 1 (Homo sapiens, UniProt Q13285). Description: Transactivation Cell-Based Assay. How it is done: The assay was to monitor the SF-1 activation state via co-transfection of CHO-K1 cells with a plasmid encoding a Gal4-SF-1 chimerical transcription factor, pGal4DBD-SF-1-LBD, and a second plasmid driving luciferase expression under control of 5 multimerized Gal4 binding sites. The assay began by dispensing transfected cell suspension to each well (4,000 cells / well) of a white solid-bottom 1536-well plate. One hour after seeding, cells were treated with test compounds or DMSO alone (high control). The -NR cells (not co-transfected with nuclear receptor) were treated with DMSO (low control). After incubation, the luciferase assay was performed, and light emission was measured for 30 seconds with the ViewLux reader (PerkinElmer, Turku, Finland). Activity of each compound was calculated using the equation: Percent inhibition of compound=100 x (1-(test well-low control)/ (high control-low control)) EC50/IC50 is the concentration of test compound to exert 50% inhibition.
Steroidogenic factor 1, sequence (Q13285 whole entry, the tested form may be a part): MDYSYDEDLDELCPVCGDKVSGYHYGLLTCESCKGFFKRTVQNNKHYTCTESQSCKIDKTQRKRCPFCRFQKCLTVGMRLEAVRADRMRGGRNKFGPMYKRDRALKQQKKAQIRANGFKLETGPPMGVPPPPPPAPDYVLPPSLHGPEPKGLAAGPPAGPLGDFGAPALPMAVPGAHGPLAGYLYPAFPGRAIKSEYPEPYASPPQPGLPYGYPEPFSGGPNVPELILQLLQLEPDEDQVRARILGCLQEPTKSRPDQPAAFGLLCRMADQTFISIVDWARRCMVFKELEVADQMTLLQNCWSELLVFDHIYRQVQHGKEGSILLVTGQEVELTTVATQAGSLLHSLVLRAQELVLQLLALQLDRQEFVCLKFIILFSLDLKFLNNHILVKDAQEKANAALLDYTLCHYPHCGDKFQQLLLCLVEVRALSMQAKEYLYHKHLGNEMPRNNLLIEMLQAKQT

With `CCOC(=O)C(C)Oc1cccc2c(=O)n(CC(=O)Nc3ccc(OC(F)(F)F)cc3)ccc12` (stereo unspecified) [ethyl 2-{[1-oxo-2-({[4-(trifluoromethoxy)phenyl]carbamoyl}methyl)-1,2-dihydroisoquinolin-5-yl]oxy}propanoate], the EC50 worked out at 200 nM.

Consider `CCOC(=O)C(C)Oc1cccc2c(=O)n(CC(=O)NCCc3ccccc3)ccc12` (stereo unspecified) [ethyl 2-[(1-oxo-2-{[(2-phenylethyl)carbamoyl]methyl}-1,2-dihydroisoquinolin-5-yl)oxy]propanoate], for which the EC50 amounted to 360 nM.

Consider `CCOC(=O)C(C)Oc1cccc2c(=O)n(CC(=O)Nc3ccc(C)cc3)ccc12` (stereo unspecified) [ethyl 2-[(2-{[(4-methylphenyl)carbamoyl]methyl}-1-oxo-1,2-dihydroisoquinolin-5-yl)oxy]propanoate], for which the midpoint of the response, the EC50, lay at 340 nM.

In turn, `CCOC(=O)C(C)Oc1cccc2c(=O)n(CC(=O)N(C)c3ccc4c(c3)OCCO4)ccc12` (stereo unspecified) [ethyl 2-[(2-{[2,3-dihydro-1,4-benzodioxin-6-yl(methyl)carbamoyl]methyl}-1-oxo-1,2-dihydroisoquinolin-5-yl)oxy]propanoate] came in with an EC50 of 3570 nM.

`CCOC(=O)C(C)Oc1cccc2c(=O)n(CC(=O)NC3CCCCC3)ccc12` (stereo unspecified) [ethyl 2-({2-[(cyclohexylcarbamoyl)methyl]-1-oxo-1,2-dihydroisoquinolin-5-yl}oxy)propanoate] registered an EC50 of 1770 nM.

The compound `CCCCc1ccc(NC(=O)Cn2ccc3c(OC(C)C(=O)OCC)cccc3c2=O)cc1` (stereo unspecified) [ethyl 2-[(2-{[(4-butylphenyl)carbamoyl]methyl}-1-oxo-1,2-dihydroisoquinolin-5-yl)oxy]propanoate] gave an EC50 of 360 nM.

In turn, `CCCCC(C)Oc1cccc2c(=O)n(CC(=O)Nc3ccc4c(c3)OCCO4)ccc12` (stereo unspecified) [N-(2,3-dihydro-1,4-benzodioxin-6-yl)-2-[5-(hexan-2-yloxy)-1-oxo-1,2-dihydroisoquinolin-2-yl]acetamide] yielded an EC50 of 880 nM.

With `CCOC(=O)C(C)Oc1cccc2c(=O)n(CC(=O)NCc3ccco3)ccc12` (stereo unspecified) [ethyl 2-[(2-{[(furan-2-ylmethyl)carbamoyl]methyl}-1-oxo-1,2-dihydroisoquinolin-5-yl)oxy]propanoate], a half-maximal response (EC50) required 4710 nM.

The compound `CCOC(=O)C(C)(C)Oc1cccc2c(=O)n(CC(=O)Nc3ccc4c(c3)OCCO4)ccc12` [ethyl 2-({2-[(2,3-dihydro-1,4-benzodioxin-6-ylcarbamoyl)methyl]-1-oxo-1,2-dihydroisoquinolin-5-yl}oxy)-2-methylpropanoate] gave an EC50 of 590 nM.

In the case of `CCOC(=O)C(C)Oc1cccc2c(=O)n(CC(=O)Nc3ccc([N+](=O)[O-])cc3)ccc12` (stereo unspecified) [ethyl 2-[(2-{[(4-nitrophenyl)carbamoyl]methyl}-1-oxo-1,2-dihydroisoquinolin-5-yl)oxy]propanoate], the midpoint of the response, the EC50, lay at 530 nM.

In turn, `CCOC(=O)C(C)Oc1cccc2c(=O)n(CC(=O)NCc3ccccc3)ccc12` (stereo unspecified) [ethyl 2-({2-[(benzylcarbamoyl)methyl]-1-oxo-1,2-dihydroisoquinolin-5-yl}oxy)propanoate] displayed an EC50 of 1060 nM.

For the compound `CCCCNC(=O)Cn1ccc2c(OC(C)C(=O)OCC)cccc2c1=O` (stereo unspecified) [ethyl 2-({2-[(butylcarbamoyl)methyl]-1-oxo-1,2-dihydroisoquinolin-5-yl}oxy)propanoate], the 50% effective concentration (EC50) was found to be 9710 nM.

For the compound `CCCCOc1cccc2c(=O)n(CC(=O)Nc3ccc4c(c3)OCCO4)ccc12` [2-(5-butoxy-1-oxo-1,2-dihydroisoquinolin-2-yl)-N-(2,3-dihydro-1,4-benzodioxin-6-yl)acetamide], the EC50 is 13700 nM.

`CCOC(=O)C(C)Oc1cccc2c(=O)n(CC(=O)Nc3ccc(CC)cc3)ccc12` (stereo unspecified) [ethyl 2-[(2-{[(4-ethylphenyl)carbamoyl]methyl}-1-oxo-1,2-dihydroisoquinolin-5-yl)oxy]propanoate]: the response was half-maximal at 110 nM (EC50).

Regarding `CCOC(=O)C(C)Oc1cccc2c(=O)n(CC(=O)NCc3ccc4c(c3)OCO4)ccc12` (stereo unspecified) [ethyl 2-[(2-{[(2H-1,3-benzodioxol-5-ylmethyl)carbamoyl]methyl}-1-oxo-1,2-dihydroisoquinolin-5-yl)oxy]propanoate], the EC50 worked out at 260 nM.

Take `CCOC(=O)C(C)Oc1cccc2c(=O)n(CC(=O)Nc3ccc4c(c3)OCCO4)ccc12` (stereo unspecified): the EC50 was found to be 760 nM.

Regarding `CCC(C)Oc1cccc2c(=O)n(CC(=O)Nc3ccc4c(c3)OCCO4)ccc12` (stereo unspecified) [2-[5-(butan-2-yloxy)-1-oxo-1,2-dihydroisoquinolin-2-yl]-N-(2,3-dihydro-1,4-benzodioxin-6-yl)acetamide], the EC50 came out at 7860 nM.

The compound `CCOC(=O)C(C)Oc1cccc2c(=O)n(CC(=O)Nc3ccc(OC)cc3)ccc12` (stereo unspecified) [ethyl 2-[(2-{[(4-methoxyphenyl)carbamoyl]methyl}-1-oxo-1,2-dihydroisoquinolin-5-yl)oxy]propanoate] returned an EC50 of 200 nM.

For the compound `CCOC(=O)C(C)Oc1cccc2c(=O)n(CC(=O)Nc3ccc(OCC)cc3)ccc12` (stereo unspecified) [ethyl 2-[(2-{[(4-ethoxyphenyl)carbamoyl]methyl}-1-oxo-1,2-dihydroisoquinolin-5-yl)oxy]propanoate], a half-maximal response (EC50) required 190 nM.

Take `CCOC(=O)C(C)Oc1cccc2c(=O)n(CC(=O)NCc3ccc(F)cc3)ccc12` (stereo unspecified) [ethyl 2-{[2-({[(4-fluorophenyl)methyl]carbamoyl}methyl)-1-oxo-1,2-dihydroisoquinolin-5-yl]oxy}propanoate]: the EC50 came out at 680 nM.

`CCOC(=O)C(C)Oc1cccc2c(=O)n(CCC(=O)Nc3ccc4c(c3)OCCO4)ccc12` (stereo unspecified) [ethyl 2-({2-[2-(2,3-dihydro-1,4-benzodioxin-6-ylcarbamoyl)ethyl]-1-oxo-1,2-dihydroisoquinolin-5-yl}oxy)propanoate] gave an EC50 of 8460 nM.
